For the test, the target named is LepRb-HDAC6 interaction (Mus musculus (Mouse), UniProt Q9Z2V5). The experiment in a line: LepRb-flag / HDAC6-myc co-immunoprecipitation in HEK293 cells. Type of test: cell-based. The note with it: 200 nM for 1 h. On the procedure: It was hypothesized that HDAC6 might interact with leptin receptor b (LepRb). To test this hypothesis, HEK293 cells were transfected with GFP or HDAC6-myc or LepRb-flag or LepRb-flag and HDAC6-myc expressing plasmids. Subsequently, cells were treated either with vehicle or HDAC6 inhibitor (ACY775) (200 nM for 1 h). Then Flag immunoprecipitation was performed to pull down LepRb and subsequently immunoblot these immune-precipitates with Myc and Flag antibodies.
Chain of LepRb-HDAC6 interaction (Q9Z2V5 whole entry): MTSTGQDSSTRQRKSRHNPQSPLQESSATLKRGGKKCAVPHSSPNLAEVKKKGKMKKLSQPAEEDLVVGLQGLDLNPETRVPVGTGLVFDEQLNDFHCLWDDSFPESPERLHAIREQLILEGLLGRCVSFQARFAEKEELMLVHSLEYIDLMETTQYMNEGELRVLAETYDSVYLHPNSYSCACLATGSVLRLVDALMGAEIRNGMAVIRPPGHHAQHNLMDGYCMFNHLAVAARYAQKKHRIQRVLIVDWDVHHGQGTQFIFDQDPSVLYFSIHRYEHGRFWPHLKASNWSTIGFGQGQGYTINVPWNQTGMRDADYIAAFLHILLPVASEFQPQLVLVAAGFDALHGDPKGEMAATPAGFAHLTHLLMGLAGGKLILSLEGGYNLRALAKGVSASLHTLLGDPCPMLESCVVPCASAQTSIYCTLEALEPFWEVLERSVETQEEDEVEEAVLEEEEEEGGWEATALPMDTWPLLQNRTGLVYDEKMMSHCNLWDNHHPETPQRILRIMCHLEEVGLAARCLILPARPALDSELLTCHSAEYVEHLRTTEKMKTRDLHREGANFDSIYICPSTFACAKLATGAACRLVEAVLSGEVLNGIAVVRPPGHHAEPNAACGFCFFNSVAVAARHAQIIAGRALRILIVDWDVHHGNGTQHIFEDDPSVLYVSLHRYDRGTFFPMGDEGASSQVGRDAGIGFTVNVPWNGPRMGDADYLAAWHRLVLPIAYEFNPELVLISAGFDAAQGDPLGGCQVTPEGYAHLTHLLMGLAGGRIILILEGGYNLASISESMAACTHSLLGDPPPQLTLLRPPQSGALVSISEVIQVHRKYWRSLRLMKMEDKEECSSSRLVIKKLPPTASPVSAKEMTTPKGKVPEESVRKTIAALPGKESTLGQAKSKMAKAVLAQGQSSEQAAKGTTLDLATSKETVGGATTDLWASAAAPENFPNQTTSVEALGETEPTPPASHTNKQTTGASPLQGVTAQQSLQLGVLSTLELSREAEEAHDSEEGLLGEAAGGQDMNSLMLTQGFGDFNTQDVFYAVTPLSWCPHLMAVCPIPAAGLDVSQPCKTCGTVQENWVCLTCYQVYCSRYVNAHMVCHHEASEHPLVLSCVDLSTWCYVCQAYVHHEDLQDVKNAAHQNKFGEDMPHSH
HEK293 cells were transfected with GFP (as control) or HDAC6 or LepRb or LepRb and HDAC6 together. Subsequently cells were either treated with vehicle or HDAC6 inhibitor (ACY775) (200 nM for 1 h). Flag immunoprecipitation was used to pull down LepRb, followed by Myc and Flag immunoblotting.

`O=C(NO)c1cnc(NC2(c3cccc(F)c3)CCCCC2)nc1` [ACY775, 2-[[1-(3-fluorophenyl)cyclohexyl]amino]-N-hydroxy-5-pyrimidinecarboxamide]: the “HDAC6 interaction with LepRb” value is reported as “blocks this interaction”.
